Measured values: ChEMBL document CHEMBL1201862, “PubChem BioAssay data set” (2004)
Calls of active or inactive are those of the source.

Experiments:
Aminopeptidase N = biological target: T1, Aminopeptidase N (Plasmodium falciparum FcB1/Columbia, UniProt O96935); assay: P. falciparum M1AAP inhibitors, biochemical, fluorogenic H-Leu-NHMec substrate, 1536-well (AID 1445); design: species or system Plasmodium falciparum 3D7, 3D7
T1 sequence (O96935 whole entry): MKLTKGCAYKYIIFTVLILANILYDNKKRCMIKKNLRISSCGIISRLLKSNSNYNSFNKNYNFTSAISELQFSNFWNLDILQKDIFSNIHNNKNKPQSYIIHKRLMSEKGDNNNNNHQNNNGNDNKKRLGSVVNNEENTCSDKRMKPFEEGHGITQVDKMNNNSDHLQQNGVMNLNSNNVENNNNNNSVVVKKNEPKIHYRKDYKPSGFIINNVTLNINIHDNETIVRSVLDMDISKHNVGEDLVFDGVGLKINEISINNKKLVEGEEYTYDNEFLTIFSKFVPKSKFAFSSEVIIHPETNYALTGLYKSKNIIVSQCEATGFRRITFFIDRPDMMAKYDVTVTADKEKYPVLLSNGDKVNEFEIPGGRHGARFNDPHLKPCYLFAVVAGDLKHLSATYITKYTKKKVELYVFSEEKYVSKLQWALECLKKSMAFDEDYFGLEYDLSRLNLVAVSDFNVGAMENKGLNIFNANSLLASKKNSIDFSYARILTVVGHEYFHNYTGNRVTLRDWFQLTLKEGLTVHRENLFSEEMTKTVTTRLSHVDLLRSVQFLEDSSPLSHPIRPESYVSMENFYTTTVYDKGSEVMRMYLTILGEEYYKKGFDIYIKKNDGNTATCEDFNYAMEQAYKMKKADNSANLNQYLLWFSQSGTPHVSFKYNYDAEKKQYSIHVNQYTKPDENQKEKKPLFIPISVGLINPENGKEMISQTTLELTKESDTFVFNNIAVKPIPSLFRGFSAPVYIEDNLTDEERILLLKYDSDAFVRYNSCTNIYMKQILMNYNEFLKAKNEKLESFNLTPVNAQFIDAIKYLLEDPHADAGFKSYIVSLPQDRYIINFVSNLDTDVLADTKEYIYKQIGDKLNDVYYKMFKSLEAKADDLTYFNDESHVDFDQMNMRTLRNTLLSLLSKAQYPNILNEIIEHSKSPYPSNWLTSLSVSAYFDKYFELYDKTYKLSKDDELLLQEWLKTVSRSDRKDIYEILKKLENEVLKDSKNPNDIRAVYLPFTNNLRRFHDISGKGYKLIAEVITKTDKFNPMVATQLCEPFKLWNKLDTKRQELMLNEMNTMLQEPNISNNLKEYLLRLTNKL

[1] = biological target: FAD-linked sulfhydryl oxidase ALR (Homo sapiens, UniProt P55789); assay: inhibitors of human ALR sulfhydryl oxidase, dose response, biochemical, H2O2 detection, luminescence, cherry-pick (AID 493248)
FAD-linked sulfhydryl oxidase ALR, sequence (P55789 whole entry): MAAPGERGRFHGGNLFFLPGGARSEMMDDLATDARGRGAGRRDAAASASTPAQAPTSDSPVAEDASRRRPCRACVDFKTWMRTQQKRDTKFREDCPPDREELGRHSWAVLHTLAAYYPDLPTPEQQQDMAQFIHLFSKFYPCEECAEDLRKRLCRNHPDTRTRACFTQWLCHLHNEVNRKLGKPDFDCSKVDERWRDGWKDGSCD

[2] = biological target: T2, Heat shock factor protein 1 (Mus musculus, UniProt P38532); assay: HSF1 potentiators in luciferase reporter cells, confirmation, cell-based, NIH3T3, luminescence, dose retest (AID 435004); assay type: functional;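 note: stress induced by proteasome inhibitor MG132 added 30 min after compound; luciferase reporter driven by HSF1 response element in NIH3T3 cells; actives raise luminescence as potentiators of the MG132 stress response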
T2 sequence (P38532 whole entry): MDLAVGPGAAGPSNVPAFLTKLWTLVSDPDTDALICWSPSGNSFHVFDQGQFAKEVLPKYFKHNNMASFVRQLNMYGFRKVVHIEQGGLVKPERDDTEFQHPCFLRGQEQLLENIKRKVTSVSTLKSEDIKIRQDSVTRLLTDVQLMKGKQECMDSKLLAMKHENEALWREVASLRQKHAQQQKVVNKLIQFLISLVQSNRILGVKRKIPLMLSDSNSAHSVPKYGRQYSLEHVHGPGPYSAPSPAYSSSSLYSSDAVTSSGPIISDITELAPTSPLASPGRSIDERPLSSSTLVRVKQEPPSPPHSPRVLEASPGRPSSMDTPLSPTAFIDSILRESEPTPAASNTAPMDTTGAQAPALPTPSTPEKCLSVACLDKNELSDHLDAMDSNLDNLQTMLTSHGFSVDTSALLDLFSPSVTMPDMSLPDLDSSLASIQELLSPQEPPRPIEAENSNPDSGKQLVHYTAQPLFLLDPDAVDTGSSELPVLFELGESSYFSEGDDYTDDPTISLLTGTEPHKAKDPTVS

Protein RecA = biological target: T3, Protein RecA (Mycobacterium tuberculosis, UniProt P9WHJ3); assay: Fluorescence Cell-Free Homogeneous Dose Retest to Identify Inhibitors of RecA-Intein Splicing Activity. [Related pubchem assays (depositor defined):AID2097, AID2223, AID489010, AID492950]; assay type: functional
T3 sequence (P9WHJ3 whole entry): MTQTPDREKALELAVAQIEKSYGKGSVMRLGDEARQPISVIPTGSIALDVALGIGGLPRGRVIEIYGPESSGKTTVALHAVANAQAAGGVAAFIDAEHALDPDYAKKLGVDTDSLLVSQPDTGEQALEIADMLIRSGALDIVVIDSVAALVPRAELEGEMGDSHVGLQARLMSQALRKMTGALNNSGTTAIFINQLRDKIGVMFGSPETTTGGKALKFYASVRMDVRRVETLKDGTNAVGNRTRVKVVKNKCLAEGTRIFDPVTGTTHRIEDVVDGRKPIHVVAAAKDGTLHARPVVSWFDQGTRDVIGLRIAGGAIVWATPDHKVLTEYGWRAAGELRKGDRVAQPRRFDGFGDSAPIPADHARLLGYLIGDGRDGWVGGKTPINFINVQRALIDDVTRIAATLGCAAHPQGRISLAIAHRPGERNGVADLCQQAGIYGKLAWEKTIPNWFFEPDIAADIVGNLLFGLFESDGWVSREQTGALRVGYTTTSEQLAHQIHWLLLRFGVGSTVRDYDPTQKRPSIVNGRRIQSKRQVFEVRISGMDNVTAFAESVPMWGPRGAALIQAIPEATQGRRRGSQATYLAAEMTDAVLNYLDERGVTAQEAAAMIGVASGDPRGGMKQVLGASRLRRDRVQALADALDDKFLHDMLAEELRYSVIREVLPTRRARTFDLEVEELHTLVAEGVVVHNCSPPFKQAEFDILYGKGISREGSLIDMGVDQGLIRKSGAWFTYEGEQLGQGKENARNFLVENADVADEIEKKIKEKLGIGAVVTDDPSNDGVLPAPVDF

[3] = biological target: T4, Replicative DNA helicase DnaB (Mycobacterium tuberculosis, UniProt P9WMR3); assay: DnaB intein splicing inhibitors, dose response, biochemical, cell-free fluorescence (AID 449749); assay type: functional
T4 sequence (P9WMR3 whole entry): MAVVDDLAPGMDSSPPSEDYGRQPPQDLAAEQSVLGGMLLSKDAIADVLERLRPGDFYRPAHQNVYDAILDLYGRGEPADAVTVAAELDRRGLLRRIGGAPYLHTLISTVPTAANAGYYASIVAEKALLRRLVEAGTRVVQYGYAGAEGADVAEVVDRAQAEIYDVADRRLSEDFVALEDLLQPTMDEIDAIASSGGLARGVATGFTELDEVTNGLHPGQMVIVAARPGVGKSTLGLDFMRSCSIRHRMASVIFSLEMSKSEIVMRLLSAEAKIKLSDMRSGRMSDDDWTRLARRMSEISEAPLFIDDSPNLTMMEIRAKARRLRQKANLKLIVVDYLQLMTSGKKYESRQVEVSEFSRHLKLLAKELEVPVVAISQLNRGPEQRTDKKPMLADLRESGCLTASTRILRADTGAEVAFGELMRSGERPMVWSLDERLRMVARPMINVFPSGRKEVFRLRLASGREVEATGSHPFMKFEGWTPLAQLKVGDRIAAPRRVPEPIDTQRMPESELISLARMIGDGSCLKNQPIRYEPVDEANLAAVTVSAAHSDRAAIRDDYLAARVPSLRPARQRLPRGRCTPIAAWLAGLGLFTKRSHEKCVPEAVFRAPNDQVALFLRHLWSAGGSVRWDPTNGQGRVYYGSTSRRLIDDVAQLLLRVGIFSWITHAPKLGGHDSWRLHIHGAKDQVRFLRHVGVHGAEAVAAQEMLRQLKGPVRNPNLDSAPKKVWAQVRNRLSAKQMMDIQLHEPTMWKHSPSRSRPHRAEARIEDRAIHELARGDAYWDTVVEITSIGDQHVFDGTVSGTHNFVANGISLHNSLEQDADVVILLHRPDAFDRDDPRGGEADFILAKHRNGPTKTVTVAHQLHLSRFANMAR

[4] = intracellular Trypanosoma cruzi inhibitors in host cells – cell-based, plate reader, cherry-pick samples, set 3, dose response (AID 651818); assay type: functional;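 note: compounds incubated with infected cells for about four days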
Fatty acid synthase [5] = biological target: T5, Fatty acid synthase (Homo sapiens, UniProt P49327); assay: FAS thioesterase domain inhibitors, dose response, biochemical, endpoint fluorescence intensity, uHTS hits (AID 624327); assay type: functional;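 note: fluorescence from hydrolysis of an O-methyl fluorescein acyl ester substrate by the enzyme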
T5 sequence (P49327 whole entry, the tested form may be a part): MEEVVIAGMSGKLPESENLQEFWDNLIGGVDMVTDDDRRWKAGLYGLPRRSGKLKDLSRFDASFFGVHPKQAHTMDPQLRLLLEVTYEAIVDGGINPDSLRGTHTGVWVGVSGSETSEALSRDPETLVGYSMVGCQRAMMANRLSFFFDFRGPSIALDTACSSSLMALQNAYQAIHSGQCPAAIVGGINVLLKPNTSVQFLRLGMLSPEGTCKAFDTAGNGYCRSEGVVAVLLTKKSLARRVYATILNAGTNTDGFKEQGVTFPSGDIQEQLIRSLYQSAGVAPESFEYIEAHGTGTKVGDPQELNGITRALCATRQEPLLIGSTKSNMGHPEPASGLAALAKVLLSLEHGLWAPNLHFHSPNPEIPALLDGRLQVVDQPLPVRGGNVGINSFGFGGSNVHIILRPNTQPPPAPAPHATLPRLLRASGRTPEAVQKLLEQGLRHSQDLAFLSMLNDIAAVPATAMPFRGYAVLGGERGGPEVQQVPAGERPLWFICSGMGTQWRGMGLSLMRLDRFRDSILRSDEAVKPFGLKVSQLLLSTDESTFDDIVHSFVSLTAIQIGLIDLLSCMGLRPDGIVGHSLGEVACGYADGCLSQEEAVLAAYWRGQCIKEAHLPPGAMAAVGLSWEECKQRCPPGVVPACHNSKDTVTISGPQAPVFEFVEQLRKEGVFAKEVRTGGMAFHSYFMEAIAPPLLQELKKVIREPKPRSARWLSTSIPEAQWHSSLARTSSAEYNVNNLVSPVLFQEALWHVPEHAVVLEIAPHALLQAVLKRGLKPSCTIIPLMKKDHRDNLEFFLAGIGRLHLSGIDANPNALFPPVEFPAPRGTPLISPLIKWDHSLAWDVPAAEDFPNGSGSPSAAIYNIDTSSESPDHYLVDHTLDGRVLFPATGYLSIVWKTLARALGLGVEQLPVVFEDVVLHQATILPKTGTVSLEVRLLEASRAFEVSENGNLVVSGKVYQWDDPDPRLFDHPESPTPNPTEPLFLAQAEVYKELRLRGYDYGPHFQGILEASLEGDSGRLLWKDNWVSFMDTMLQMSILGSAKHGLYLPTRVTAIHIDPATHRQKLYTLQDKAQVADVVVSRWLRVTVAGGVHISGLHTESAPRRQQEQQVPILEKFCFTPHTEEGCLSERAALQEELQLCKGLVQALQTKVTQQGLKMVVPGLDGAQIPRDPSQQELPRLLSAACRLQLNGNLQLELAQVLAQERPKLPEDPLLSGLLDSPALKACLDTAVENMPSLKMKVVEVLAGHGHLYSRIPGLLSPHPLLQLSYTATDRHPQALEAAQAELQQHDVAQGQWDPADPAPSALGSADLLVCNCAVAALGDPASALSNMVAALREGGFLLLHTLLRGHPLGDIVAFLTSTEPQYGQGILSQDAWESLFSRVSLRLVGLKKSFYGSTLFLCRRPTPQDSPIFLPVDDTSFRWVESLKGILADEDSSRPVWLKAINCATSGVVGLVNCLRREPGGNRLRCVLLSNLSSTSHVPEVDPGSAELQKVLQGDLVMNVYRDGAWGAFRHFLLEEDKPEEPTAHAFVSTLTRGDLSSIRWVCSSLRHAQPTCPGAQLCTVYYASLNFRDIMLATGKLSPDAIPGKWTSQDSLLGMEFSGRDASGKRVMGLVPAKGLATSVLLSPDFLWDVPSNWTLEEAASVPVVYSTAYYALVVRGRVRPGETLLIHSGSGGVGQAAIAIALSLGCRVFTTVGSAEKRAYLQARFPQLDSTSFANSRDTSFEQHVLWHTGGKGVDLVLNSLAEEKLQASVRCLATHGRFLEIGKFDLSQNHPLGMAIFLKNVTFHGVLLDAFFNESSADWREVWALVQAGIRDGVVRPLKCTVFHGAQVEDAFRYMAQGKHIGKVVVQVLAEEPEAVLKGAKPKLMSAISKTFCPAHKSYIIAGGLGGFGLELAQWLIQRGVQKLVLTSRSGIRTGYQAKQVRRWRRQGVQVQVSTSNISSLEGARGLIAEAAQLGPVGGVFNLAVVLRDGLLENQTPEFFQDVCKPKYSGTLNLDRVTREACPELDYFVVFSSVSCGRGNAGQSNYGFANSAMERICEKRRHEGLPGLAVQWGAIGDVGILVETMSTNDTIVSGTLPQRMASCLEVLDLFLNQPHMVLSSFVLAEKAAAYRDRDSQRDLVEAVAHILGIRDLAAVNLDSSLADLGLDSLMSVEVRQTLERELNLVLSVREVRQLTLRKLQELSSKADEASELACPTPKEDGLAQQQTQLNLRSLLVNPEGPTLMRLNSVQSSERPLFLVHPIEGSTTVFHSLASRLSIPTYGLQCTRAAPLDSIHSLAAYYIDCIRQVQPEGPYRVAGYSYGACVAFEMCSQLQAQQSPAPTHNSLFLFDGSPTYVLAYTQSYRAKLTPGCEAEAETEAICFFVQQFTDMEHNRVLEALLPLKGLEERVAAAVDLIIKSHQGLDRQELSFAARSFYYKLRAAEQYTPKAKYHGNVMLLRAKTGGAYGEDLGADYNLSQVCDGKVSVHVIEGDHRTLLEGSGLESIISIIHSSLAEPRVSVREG

Fatty acid synthase [6] = biological target: T5, Fatty acid synthase; assay: FAS thioesterase domain inhibitors, dose response, biochemical, kinetic fluorescence intensity (AID 624326); assay type: functional;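 note: rate of fluorescence rise from hydrolysis of a fluorogenic O-methyl fluorescein ester substrate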
[7] = biological target: Induced myeloid leukemia cell differentiation protein Mcl-1 (Homo sapiens, UniProt Q07820); assay type: functional
Induced myeloid leukemia cell differentiation protein Mcl-1, sequence (Q07820 whole entry): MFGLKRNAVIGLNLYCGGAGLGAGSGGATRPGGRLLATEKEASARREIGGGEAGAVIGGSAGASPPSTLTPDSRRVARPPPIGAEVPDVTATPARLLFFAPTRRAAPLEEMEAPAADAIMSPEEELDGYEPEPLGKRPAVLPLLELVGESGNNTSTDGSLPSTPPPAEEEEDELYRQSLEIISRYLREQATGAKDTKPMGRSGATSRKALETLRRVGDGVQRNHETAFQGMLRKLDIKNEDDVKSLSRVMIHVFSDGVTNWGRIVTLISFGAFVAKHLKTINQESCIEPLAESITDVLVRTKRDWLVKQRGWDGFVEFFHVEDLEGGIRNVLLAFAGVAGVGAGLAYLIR

[8] = Shn3 3'UTR reporter inhibitors, dose response, cell-based, Clone20 osteoblasts, firefly luciferase, cherry-picked (AID 624132); assay type: functional;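 note: firefly luciferase luminescence from reporter carrying the Shn3 3'UTR in osteoblasts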
[9] = cytotoxicity toward NIH3T3 fibroblasts, dose response, counter-screen, cell-based, ATP luminescence, mouse fibroblasts (AID 2010); assay type: functional;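 note: cells exposed to compound for about 90 hours before reading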
[10] = control 3'UTR Renilla luciferase suppression, dose response, counter-screen for Shn3 inhibitor project, cell-based, Clone20-Shn3RL, cherry-picked (AID 624133); assay type: functional
Nonstructural protein 1 = Nonstructural protein 1 (Influenza A virus, UniProt Q194T2); assay type: functional, Influenza A virus (A/California/07/2009(H1N1))
Nonstructural protein 1, sequence (Q194T2 whole entry): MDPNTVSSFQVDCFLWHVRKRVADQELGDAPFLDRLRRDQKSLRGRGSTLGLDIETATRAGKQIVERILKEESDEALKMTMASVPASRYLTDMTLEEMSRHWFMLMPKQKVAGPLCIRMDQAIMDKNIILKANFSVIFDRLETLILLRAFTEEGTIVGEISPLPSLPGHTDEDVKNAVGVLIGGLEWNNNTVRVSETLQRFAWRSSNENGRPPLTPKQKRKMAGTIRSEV

[11] = inhibitors of intracellular T. cruzi replication, confirmation, NIH3T3 host cells, beta-gal luminescence (AID 2044); assay type: functional, cell-based;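 note: intracellular parasites grown in NIH/3T3 mouse fibroblasts as host cells; luminescent beta-galactosidase reporter signal from transgenic T. cruzi replicating inside host cells; inhibitors lower the luminescence signal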
[12] = HepG2 cell cytotoxicity, dose response, cytotoxicity control for Shn3 inhibitor project, CellTiter-Glo, cherry-picked (AID 624134); assay type: functional, cell-based
INS1 = assay: beta cell apoptosis inhibitors, cytokine rescue, dose response, luminescence, retest (AID 449756); assay type: functional, cell-based; conditions: Rattus norvegicus;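 note: cell death triggered by IL-1 beta plus TNF-alpha plus IFN-gamma mixture; protective hits raise ATP signal compared with cytokine alone wells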
[13] = inhibitors of HIV Env-driven cell fusion, dose response, cherry-pick (AID 652057); assay type: functional, cell-based

Compound: O=C(CCN1CCOCC1)Nc1c(O)nc2ccc(Br)cc2c1-c1ccccc1
- IC50 (Aminopeptidase N): 93.9 µM (active)

Compound: CCc1n[nH]c(C(=O)N2CCCC(Nc3cccc(F)c3)C2)c1C (stereo not drawn)
- AC50 [1]: 2.88 µM (active)

Compound: O=C(CCC1CCCN(C(=O)c2ccc3cc[nH]c3c2)C1)NCc1ccc(F)c(F)c1 (stereo not drawn)
- EC50 [2]: 38.9 µM (active)
- IC50 (Aminopeptidase N): 33.1 µM (active)

Compound: COc1ccc(C2CC(c3ccccc3)=NN2c2ccccc2)c(C(=O)O)c1OC (stereo not drawn)
- AC50 [1]: 4.74 µM (active)

Compound: COc1ccccc1C(NC(C)=O)c1c(O)ccc2ccc(O)cc12 (stereo not drawn)
- AC50 [1]: 2.44 µM (active)
- EC50 (Protein RecA): 2.89 µM (active)
- AC50 [3]: > 380 µM (inactive)

Compound: O=C(NN/C=C1\C(=O)N(c2ccccc2Cl)C(=O)c2ccccc21)c1cccnc1
- IC50 (Aminopeptidase N): 32.6 µM (active)

Compound: Cc1ccc(S(=O)(=O)Nc2cc(C)c(O)cc2C)cc1
- AC50 [1]: 3.11 µM (active)

Compound: C[C@@H]1CCCCO[C@H](CN(C)C(=O)Nc2cccc3ccccc23)[C@@H](C)CN([C@H](C)CO)C(=O)c2cc(NS(=O)(=O)c3ccc(Cl)cc3)ccc2O1
- AC50 [4]: 3.37 µM (active)

Compound: C[C@@H]1CN([C@@H](C)CO)C(=O)c2cccc(NS(=O)(=O)c3ccccc3)c2O[C@@H]1CN(C)Cc1ccc(-c2ccccc2)cc1
- AC50 [4]: 3.3 µM (active)

Compound: CCO/C(O)=C1/C(CC)=Nc2ccccc2N=C1NS(=O)(=O)c1cc(Br)ccc1Br
- IC50 (Aminopeptidase N): 30.3 µM (active)

Compound: COc1cccc(NC(=O)CN2C(=O)COc3ccc(S(=O)(=O)N4CCC(C)CC4)cc32)c1
- EC50 [2]: > 260 µM (inactive)
- IC50 (Fatty acid synthase [5]): 7.97 µM (active)
- IC50 (Fatty acid synthase [6]): 6.57 µM (active)

Compound: O=C1N/C(=N\c2ccccc2)S/C1=C\C=C\c1ccco1
- IC50 [7]: 12.2 µM (active)

Compound: C[C@@H]1CCCCO[C@H](CN(C)Cc2ccccc2)[C@@H](C)CN([C@H](C)CO)C(=O)c2cc(NC(=O)Nc3ccc(C(F)(F)F)cc3)ccc2O1
- AC50 [4]: 5.97 µM (active)

Compound: C[C@H]1CN([C@@H](C)CO)C(=O)c2cccc(NC(=O)c3cnccn3)c2O[C@H]1CN(C)Cc1ccc(C(=O)Nc2ccccc2N)cc1
- AC50 [4]: 0.803 µM (active)

Compound: Cc1ccc(C(=O)NCCSc2snnc2C)cc1
- AC50 [1]: 0.117 µM (active)

Compound: Cc1ccc(N2C(=O)NC(=O)/C(=C/c3cnc(-c4ccccc4)nc3)C2=O)cc1C
- IC50 [7]: 1.66 µM (active)

Compound: CCN(CC)c1ccc(CNc2nc3ccccc3n2CCN2CCCCC2)cc1
- AC50 [1]: 0.68 µM (active)
- AC50 [8]: 2.64 µM (active)
- EC50 [9]: 7.56 µM (active)
- AC50 [10]: 1.51 µM (active)
- IC50 (Nonstructural protein 1): 27 µM (active)
- EC50 [11]: 3.28 µM (active)
- AC50 [12]: 10.2 µM (active)
- AC50 (INS1): 7.16 µM (active)

Compound: CC(C)CC#Cc1ccc2c(c1)O[C@@H](CN(C)C(=O)C1CCCCC1)[C@H](C)CN([C@@H](C)CO)S2(=O)=O
- AC50 [13]: 27.8 µM (active)

Compound: Cc1ccc(NC2CCCN(C(=O)c3cn4cc(Cl)ccc4n3)C2)cc1C (stereo not drawn)
- AC50 [1]: 1.01 µM (active)

Compound: C[C@@H]1CN([C@H](C)CO)C(=O)c2cc(NS(=O)(=O)c3ccc(Cl)cc3)ccc2O[C@H]1CN(C)Cc1ccc(Cl)c(Cl)c1
- AC50 [4]: 1.81 µM (active)

Compound: COc1ccc(S(=O)(=O)Nc2ccc3c(c2)CC(=O)N([C@H](C)CO)C[C@@H](C)[C@@H](CN(C)Cc2ccc(-c4ccccc4)cc2)O3)cc1
- AC50 [4]: 2.35 µM (active)
